Test results: patent US20030082803A1, “Cell cycle control” (priority 1999, published 2003)

What was measured:
[1] = tested on: mES cells; test: Cell cycle arrest and cell cycle structure by flow cytometry of PI-stained mES cells; assay type: cell-based, murine; conditions: up to concentrations of 140 μM
Method: Cdk2 activity levels determine the rate of mES cell division but not cell cycle structure. (A) mES cells were grown for up to 8 passages in the presence (+) or absence (−) of Ro09-3033 (2 μM). Cdk2, cyclin E and cyclin B-associated H1 kinase activities were assayed as described previously after immunoprecipitation from whole cell lysates (100 μg protein). Input loading control was determined by probing immunoblots (15 μg lysate protein) with α-Cdk2 and α-Oct4 polyclonal antibodies. Quantitation of H1 kinase activities are shown in the lower panel as the average of two independent experiments. (B) Northern blot analysis of Oct4, Rex-1 and GAPDH transcripts from mES cells grown with (+) or without (−) inhibitor (2 μM) for the number of passages indicated. RNA was resolved by agarose gel electrophoresis, blotted and hybridized with [^32P]-labelled Oct4, Rex-1 and GAPDH probes (15 μg total RNA per lane). […] (C) After 8 passages in the presence (+) or absence (−) of 2 μM Ro09-3033, mES and mEPL cells were fixed and stained with PI and analysed by flow cytometry. […] Generation times of mEPL cells were not determined in this experiment.
In preparation for flow cytometry, cells were resuspended in 300 μl of PBS supplemented with 1% FCS. […] Cells were stained by the addition of 2.5 mg/ml propidium iodide (Sigma) and 0.5 mg/ml RNAase A and analysed on a Beckman-Coulter flow cytometer with WinMDi software.

[2] = accumulation of cells at G1/S or G2/M, reference (31); cited from earlier work

SMILES: CC[C@H](CO)Nc1nc(NCc2ccccc2)c2ncn(C(C)C)c2n1 [roscovitine]
- Effect on cell division times or cell cycle structure in mES cells [1]: no effect
- Concentration range in which it typically acts as a cell cycle specific inhibitor [2]: 20 to 30 µM
